Test results from patent US20160303095A1, “METHODS OF TREATING HEPATITIS B VIRUS” (Gilead Sciences, Inc., priority 2015, published 2016).
Read-outs that look alike come from different tables or passages of the source.

System: HBV
Experiment: PHH screening protocol: HBsAg and HBeAg levels by MSD ELISA
Assay type: cell-based, Hepatitis B Virus
Details: Hepatitis B virus, 336 h, compound removed after 14 days of treatment
Experimental: HBV antiviral activity was assessed in primary human hepatocytes (PHH) in a 96-well format. PHH were (Life Technologies, Chicago, 11) plated on collagen coated tissue culture plates using Plating Media containing William's Medium E supplemented with 1% Penicillin/Streptomycin, 4 μg/mL human recombinant insulin, 2 mM glutamax, 15 mM Hepes, 1 μM dexamethasone and 5% fetal bovine serum (Life Technologies, Cat#A12176-01 Life Technologies, Chicago, Ill.). After a 4-hour incubation at 37° C., cells were switched to Maintenance Media (Cat#CM4000-A15564 Life Technologies, Chicago, Ill.) containing William's Medium E supplemented with 0.5% Penicillin/Streptomycin, 6.25 μg/mL human recombinant insulin, 6.25 μg/mL human transferrin, 6.25 ng/mL selenous acid, 1.25 mg/mL bovine serum albumin, 5.35 μg/mL linoleic acid, 2 mM glutamax, 15 mM Hepes, 0.1 μM dexamethasone, 2% fetal bovine serum, and 2% DMSO (Cat#D2650 Sigma, St. Louis, Mo.). On the next day, cells were infected with approximately 500 genome equivalent of selected HBV clinical isolates (21P (GTA), 32P (GTA), 91P (GTA), AD38 (GTD), 65P (GTD) or 30P (GTE); ProteoGenex, Culver City, Calif.) per cell in Maintenance Media supplemented with 4% PEG 8000 (Cat#V3011 Promega, Madison, Wis.). After 24 hour incubation cells were washed three times with William's Medium E and fed with fresh Maintenance Media. Small molecule inhibitors targeting KDMs were serially diluted in Maintenance Media and added to cells at 3 days post infection (p.i.). Media with compounds was replenished every 2-3 days. Media collected on various days was used for determination of HBsAg and HBeAg levels by MSD ELISA, and HBV RNA by qPCR. All data were converted into percentages of the untreated control and non-linear regression was performed to calculate EC50 or CC50 values.

CCOC(=O)c1ccnc(CNCC(=O)N(CC)CCN(C)C)c1 [Example 8]
EC50 (read-out: HBeAg EC50, virus 30P, PHH donor 4239, d 14): 4310 nM | EC50 (read-out: HBeAg EC50, virus 30P, PHH donor 4239, d 17): 141 nM | EC50 (read-out: HBeAg EC50, virus 30P, PHH donor 4239, d 20): 111 nM | EC50 (read-out: HBeAg EC50, virus 30P, PHH donor 4239, d 25): 15 nM | EC50 (read-out: HBeAg EC50, virus 30P, PHH donor 4239, d 31): 36 nM | EC50 (read-out: HBeAg EC50, virus 30P, PHH donor 8130, d 14): 318 nM | EC50 (read-out: HBeAg EC50, virus 30P, PHH donor 8130, d 17): 24 nM | EC50 (read-out: HBeAg EC50, virus 30P, PHH donor 8130, d 20): 20 nM | EC50 (read-out: HBeAg EC50, virus 30P, PHH donor 8130, d 25): 2 nM | EC50 (read-out: HBeAg EC50, virus 30P, PHH donor 8130, d 31): 2 nM | EC50 (read-out: HBeAg EC50, virus AD38, PHH donor 4239, d 14): > 15000 nM | EC50 (read-out: HBeAg EC50, virus AD38, PHH donor 4239, d 17): 1660 nM | EC50 (read-out: HBeAg EC50, virus AD38, PHH donor 4239, d 20): 670 nM | EC50 (read-out: HBeAg EC50, virus AD38, PHH donor 4239, d 25): 110 nM | EC50 (read-out: HBeAg EC50, virus AD38, PHH donor 4239, d 31): 200 nM | EC50 (read-out: HBeAg EC50, virus AD38, PHH donor 8130, d 14): 2420 nM | EC50 (read-out: HBeAg EC50, virus AD38, PHH donor 8130, d 17): 840 nM | EC50 (read-out: HBeAg EC50, virus AD38, PHH donor 8130, d 20): 190 nM | EC50 (read-out: HBeAg EC50, virus AD38, PHH donor 8130, d 25): 30 nM | EC50 (read-out: HBeAg EC50, virus AD38, PHH donor 8130, d 31): 10 nM | EC50 (read-out: HBsAg EC50, virus 30P, PHH donor 4239, d 14): > 15000 nM | EC50 (read-out: HBsAg EC50, virus 30P, PHH donor 4239, d 17): 207 nM | EC50 (read-out: HBsAg EC50, virus 30P, PHH donor 4239, d 20): 26 nM | EC50 (read-out: HBsAg EC50, virus 30P, PHH donor 4239, d 25): 28 nM | EC50 (read-out: HBsAg EC50, virus 30P, PHH donor 4239, d 31): 32 nM | EC50 (read-out: HBsAg EC50, virus 30P, PHH donor 8130, d 14): 1 nM | EC50 (read-out: HBsAg EC50, virus 30P, PHH donor 8130, d 17): 19 nM | EC50 (read-out: HBsAg EC50, virus 30P, PHH donor 8130, d 20): 3 nM | EC50 (read-out: HBsAg EC50, virus 30P, PHH donor 8130, d 25): 2 nM | EC50 (read-out: HBsAg EC50, virus 30P, PHH donor 8130, d 31): 2 nM | EC50 (read-out: HBsAg EC50, virus AD38, PHH donor 4239, d 14): 6300 nM | EC50 (read-out: HBsAg EC50, virus AD38, PHH donor 4239, d 17): 842 nM | EC50 (read-out: HBsAg EC50, virus AD38, PHH donor 4239, d 20): 300 nM | EC50 (read-out: HBsAg EC50, virus AD38, PHH donor 4239, d 25): 372 nM | EC50 (read-out: HBsAg EC50, virus AD38, PHH donor 4239, d 31): 152 nM | EC50 (read-out: HBsAg EC50, virus AD38, PHH donor 8130, d 14): 2010 nM | EC50 (read-out: HBsAg EC50, virus AD38, PHH donor 8130, d 17): 920 nM | EC50 (read-out: HBsAg EC50, virus AD38, PHH donor 8130, d 20): 81 nM
